{
  "source": "patent US8003615B2",
  "about": "“Stable vitamin B6 derivative” (Daiichi Fine Chemical Co., Ltd., priority 2003, dated 2011)",
  "format_in_all_cases": "physicochemical",
  "key": {"[1]": {"experiment": "Light stability in a shampoo", "protocol": "Sodium coconut oil fatty acid methyltaurine (10.0 g), polyoxyethylene alkyl ether sodium sulfate (20.0 g), lauryl dimethylaminoacetate betaine (10.0 g), coconut oil fatty acid diethanolamide (4.0 g), propylene glycol (2.0 g), vitamin B6 derivative (0.1 g), and methyl paraoxybenzoate (0.01 g) were added to purified water (40 ml), and warmed to 70° C. for dissolution. The solution was cooled to a temperature below 35° C., and then adjusted to pH 6.8 with 10% aqueous citric acid, and made into a volume of 100 ml with purified water to prepare a shampoo. In this preparation, precipitates and the like were not observed. The prepared shampoo in a volume of 6 ml was filled in a glass bottle, and exposed to light of a D65 fluorescent lamp at a total illumination of 0, 60,000, 180,000, or 300,000 lux·hr, and then the vitamin B6 derivative was quantified. The same sample was separately stored at 50° C., and after 0 day, 14 days, one month, and two months, the vitamin B6 derivative was quantified by the HPLC method in the same manner as in Test Example 11 mentioned above."}, "[2]": {"experiment": "Light stability in a lotion", "protocol": "Ceramide formulation (0.1 g), 1,3-butylene glycol (2.5 g), dipropylene glycol (2.5 g), and methylparaben (0.01 g) were warmed at 80° C. and stirred until the mixture became transparent. The mixture was cooled to 35° C., then added with 0.1 g of a vitamin B6 derivative (pyridoxine 3-β-D-glucoside, pyridoxine 3-β-D-glucoside hydrochloride, or pyridoxine 3,4-cyclic sodium phosphate: in Test Examples 11 to 16 mentioned below, the “vitamin B6 derivative” means one of these three kinds of substances) or 0.1 g of pyridoxine 3-sodium sulfate, 1.0 g of sorbitol-fermented polysaccharide and 90 ml of purified water with stirring, and the mixture were stirred until the added substances were dissolved. The solution was adjusted to pH 6.4 with 10% aqueous citric acid, and made into a volume of 100 ml with purified water to prepare a lotion. In this preparation, precipitates and the like were not observed. The prepared lotion in a volume of 6 ml was filled in a glass bottle, and exposed to light of a D65 fluorescent lamp at a total illumination of 0, 60,000, 180,000, or 300,000 lux·hr, and then the vitamin B6 derivative was quantified. The same sample was separately stored at 50° C., and after 0 day, 14 days, one month, and two months, the vitamin B6 derivative was quantified by the HPLC method described in Test Example 1."}, "[3]": {"experiment": "Light stability in a drinking water", "protocol": "Glucose (4.6 g), Aspartame (0.01 g), citric acid (0.1 g), sodium chloride (0.02 g), potassium chloride (0.02 g), magnesium chloride (0.01 g), calcium lactate (0.04 g), vitamin B6 derivative (0.01 g), sodium L-aspartate (0.07 g), sodium L-glutamate (0.02 g), L-arginine (0.02 g), and aromatic (0.1 g) were dissolved in purified water (70 ml), and then made into a volume of 100 ml with purified water to prepare a drinking water. In this preparation, precipitates and the like were not observed. The prepared drinking water in a volume of 6 ml was filled in a glass bottle, and exposed to light of a D65 fluorescent lamp at a total illumination of 0, 60,000, 180,000, or 300,000 lux·hr, and then the vitamin B6 derivative was quantified by the HPLC method in the same manner as in Test Example 1."}, "[4]": {"experiment": "Light stability in an eye lotion", "protocol": "Neostigmine methylsulfate (5 mg), potassium L-aspartate (0.4 g), boric acid (5 mg), sodium borate (5 mg), methyl paraoxybenzoate (10 mg), chlorobutanol (0.1 g), and vitamin B6 derivative (0.1 g) were dissolved in sterilized purified water (70 ml). After dissolution, the solution was made into a volume of 100 ml with sterilized purified water to prepare an eye lotion. In this preparation, precipitates and the like were not observed. The prepared eye lotion in a volume of 6 ml was put into a glass bottle, and exposed to light of a D65 fluorescent lamp at a total illumination of 0, 60,000, 180,000, or 300,000 lux·hr, and then the vitamin B6 derivative was quantified by the HPLC method in the same manner as in Test Example 11 mentioned above."}, "[5]": {"experiment": "Test for change in formulation: powder mixed with calcium pantothenate", "conditions": "40° C. and 75% humidity, one month", "protocol": "Calcium pantothenate (1 g) and a vitamin B6 derivative (1 g) was uniformly mixed in a mortar to prepare a sample in the form of a powder for stability test. The sample placed in an opened glass bottle was stored in an oven at 40° C. under 75% humidity. Appearance of the sample was examined by visual inspection after 0 day, 14 days, and one month, and the vitamin B6 derivative and calcium pantothenate were quantified by the HPLC method in the same manner as in Test Example 11 mentioned above, provided that the detection wavelength for calcium pantothenate was 210 nm."}, "[6]": {"experiment": "Test for change in formulation: aqueous solution with calcium pantothenate", "conditions": "aqueous solution 0.1 g + 0.1 g calcium pantothenate per 100 ml, 40° C., one month", "protocol": "Calcium pantothenate (0.1 g) and a vitamin B6 derivative (0.1 g) were dissolved in purified water and made 100 ml to prepare a sample for stability test in the form of a solution. The sample filled in a sealed glass bottle was stored at 40° C. Appearance of the sample was examined by visual inspection after 0 day, 14 days, and one month, and the vitamin B6 derivative and calcium pantothenate were quantified by the HPLC method in the same manner as in Test Example 11 mentioned above, provided that the detection wavelength for calcium pantothenate was 210 nm."}, "[7]": {"experiment": "Light stability in a dog food", "protocol": "A vitamin B6 derivative (0.1 g) was added to wheat flour (10 g), and uniformly mixed. The mixture was further successively added with breast meat of chicken (40.0 g), soybean protein (30.0 g), glucose (5.0 g), citric acid (0.001 g), sodium chloride (1.0 g), copper sulfate (0.01 g), iron sulfate (0.01 g), sorbic acid (0.3 g), and propylene glycol (5.0 g), and uniformly mixed. The mixture was made 100 g with purified water, and uniformly mixed to prepare dog food.\nThe prepared dog food in an amount of 5 g was put into a petri dish, and exposed to light of a D65 fluorescent lamp at a total illumination of 0, 60,000, 180,000, or 300,000 lux·hr, and then the vitamin B6 derivative was quantified by the HPLC method in the same manner as in Test Example 11 mentioned above."}, "[8]": {"conditions": "D65 fluorescent lamp, 180,000 lux·hr for 3 days"}, "[9]": {"conditions": "D65 fluorescent lamp, 300,000 lux·hr for 5 days"}},
  "data": [
    {"compound": "Cc1ncc(CO)c(CO)c1O.Cl", "note": "[pyridoxine hydrochloride]", "values": [
      {"measurement": "remained substance in shampoo after irradiation", "setting": "[1]; shampoo pH 6.8, D65 fluorescent lamp, 180,000 lux·hr for 3 days", "value": 60, "unit": "%"},
      {"measurement": "remained substance in shampoo after irradiation", "setting": "[1]; shampoo pH 6.8, D65 fluorescent lamp, 300,000 lux·hr for 5 days", "value": 58, "unit": "%"},
      {"measurement": "remained substance in lotion after irradiation", "setting": "[2]; lotion pH 6.4, D65 fluorescent lamp, 180,000 lux·hr for 3 days", "value": 42, "unit": "%"},
      {"measurement": "remained substance in lotion after irradiation", "setting": "[2]; lotion pH 6.4, D65 fluorescent lamp, 300,000 lux·hr for 5 days", "value": 30, "unit": "%"},
      {"measurement": "remained substance in drinking water after irradiation", "setting": "[3]; [8]", "value": 68, "unit": "%"},
      {"measurement": "remained substance in drinking water after irradiation", "setting": "[3]; [9]", "value": 56, "unit": "%"},
      {"measurement": "remained substance in eye lotion after irradiation", "setting": "[4]; [8]", "value": 68, "unit": "%"},
      {"measurement": "remained substance in eye lotion after irradiation", "setting": "[4]; [9]", "value": 49, "unit": "%"},
      {"measurement": "remained calcium pantothenate in the formulation with the substance", "setting": "[5]; powder 1 g + 1 g calcium pantothenate", "value": 81, "unit": "%"},
      {"measurement": "appearance of the formulation with calcium pantothenate", "setting": "[5]; powder, visual inspection", "value": "the white appearance became brown, and blocking and deliquescence were observed"},
      {"measurement": "remained calcium pantothenate in the formulation with the substance", "setting": "[6]", "value": 83, "unit": "%"},
      {"measurement": "remained substance in dog food after irradiation", "setting": "[7]; [8]", "value": 90, "unit": "%"},
      {"measurement": "remained substance in dog food after irradiation", "setting": "[7]; [9]", "value": 85, "unit": "%"}
    ]}
  ]
}
